{"source": "patent US5140009A", "about": "(Tap Pharmaceuticals, Inc., priority 1990, dated 1992)", "note": "Numbered stars: 1 amine (or outer) side, 2 acyl side, 3 side chain; on linkers, the order of the positions; unused ones are H or OH. Square brackets hold non-standard residues; d marks the D form. Peptide text beside a SMILES is read from it. * marks the point of attachment. Propanoyl(3-(1-naphthyl)) = O=C(CCc1cccc2ccccc12)*; Propanoyl(3-indol-3-yl) = O=C(CCc1c[nH]c2ccccc12)*; Acryloyl(3-(pyridin-3-yl)) = O=C(C=Cc1cccnc1)*; Propanoyl(3-(3-pyridyl)) = O=C(CCc1cccnc1)*; Desaminohistidyl = O=C(CCc1c[nH]cn1)*; d2Nal = N[C@H](Cc1ccc2ccccc2c1)C(=O)O; dLys(iPr) = CC(C)NCCCC[C@@H](N)C(=O)O; X11 = CN(C)c1ccc(C=CC(=O)*)cc1; NMeL = CN[C@@H](CC(C)C)C(=O)O; dNMeL = CN[C@H](CC(C)C)C(=O)O; Nicotinoyl = O=C(c1cccnc1)*; Picolinoyl = O=C(c1ccccn1)*; dOrn = NCCC[C@@H](N)C(=O)O; Morpholide = C1CN(*)CCO1; X2 = O=C(C=Cc1ccccc1)*; CO = O=C([*:1])[*:2]; Bn = c1ccc(C*)cc1"}
{"biological_target": "T1, LHRH receptors (Rattus norvegicus, UniProt P30969)", "T1 construct": "Pituitary membranes containing LHRH receptors are prepared in batches from quick-frozen rat pituitaries; tissue Hilltop Labs; host or cells: rat pituitary membranes", "T1 sequence (P30969 1-327)": "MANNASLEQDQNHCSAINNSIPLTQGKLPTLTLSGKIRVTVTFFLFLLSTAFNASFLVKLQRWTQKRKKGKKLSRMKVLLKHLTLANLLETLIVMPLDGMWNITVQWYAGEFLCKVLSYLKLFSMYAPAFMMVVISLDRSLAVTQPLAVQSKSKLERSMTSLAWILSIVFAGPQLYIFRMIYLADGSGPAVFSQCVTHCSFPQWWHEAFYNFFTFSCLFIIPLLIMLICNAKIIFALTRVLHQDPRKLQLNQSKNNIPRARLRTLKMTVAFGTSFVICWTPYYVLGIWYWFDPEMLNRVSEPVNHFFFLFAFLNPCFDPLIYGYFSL", "test": "Receptor Binding (radioligand receptor binding assay)", "conditions": "table 3; rat pituitary membranes, radioiodinated [D-Leu^6 -des Gly^10 ]-LHRH ethyl amide 50 pM, 2 hours at 4° C.; read-out: Receptor Binding pkI (converted)", "units": {"Ki": "nM"}}
{"smiles": "CCNC(=O)[C@@H]1CCCN1C(=O)[C@H](CCCN=C(N)N)NC(=O)[C@H](CC(C)C)NC(=O)[C@@H](CC(C)C)NC(=O)[C@H](Cc1ccc(O)cc1)NC(=O)[C@H](CO)NC(=O)CCc1cccnc1", "note": "[Compound 41, (4-9)[N-(3-(3-Pyridyl)propionyl)-Ser^4 -D-Leu^6 -Pro^9 -NHEt]LHRH] ({Propanoyl(3-(3-pyridyl))}-SY[dL]LRP-NHEt)", "Ki": 1740}
{"smiles": "CCNC(=O)[C@@H]1CCCN1C(=O)[C@H](CCCNC(=N)N)NC(=O)[C@H](CC(C)C)NC(=O)[C@@H](Cc1c[nH]c2ccccc12)NC(=O)[C@H](Cc1ccc(O)cc1)NC(=O)[C@H](CO)NC(=O)C=Cc1cccnc1", "note": "[Compound 43, (4-9)[N-(3-(3-Pyridyl)acryloyl)-Ser^4 -D-Trp^6 -Pro^9 -NHEt]LHRH] ({Acryloyl(3-(pyridin-3-yl))}-SY[dW]LRP-NHEt)", "Ki": 646}
{"smiles": "CCNC(=O)[C@@H]1CCCN1C(=O)[C@H](CCCNC(=N)N)NC(=O)[C@H](CC(C)C)NC(=O)[C@@H](CCCNC(=N)N)NC(=O)[C@H](Cc1ccc(O)cc1)NC(=O)[C@H](CO)NC(=O)CCc1cccc2ccccc12", "note": "[Compound 44, (4-9)[N-(3-(1-Naphthyl)propionyl)-Ser^4 -D-Arg^6 -Pro^9 -NHEt]LHRH] ({Propanoyl(3-(1-naphthyl))}-SY[dR]LRP-NHEt)", "Ki": 3.98}
{"smiles": "CCNC(=O)[C@@H]1CCCN1C(=O)[C@H](CCCNC(=N)N)NC(=O)[C@H](CC(C)C)NC(=O)[C@@H](CCCNC(=N)N)NC(=O)[C@H](Cc1ccc(O)cc1)NC(=O)[C@H](COCc1ccccc1)NC(=O)CCc1cccc2ccccc12", "note": "[Compound 45, (4-9)[N-(3-(1-Naphthyl)propionyl)-Ser^4 (OBzl)-D-Arg^6 -Pro^9 -NHEt]LHRH] ({Propanoyl(3-(1-naphthyl))}-S(Bn)Y[dR]LRP-NHEt)", "Ki": 6.03}
{"smiles": "CCNC(=O)[C@@H]1CCCN1C(=O)[C@H](CCCNC(=N)N)NC(=O)[C@H](CC(C)C)N(C)C(=O)[C@@H](Cc1c[nH]c2ccccc12)NC(=O)[C@H](Cc1ccc(O)cc1)NC(=O)[C@H](CO)NC(=O)CCc1c[nH]c2ccccc12", "note": "[Compound 46, N-(3-(3-Indole)propionyl)Ser-Tyr-D-Trp-N-Me-Leu-Arg-Pro-NHEt] ({Propanoyl(3-indol-3-yl)}-SY[dW][NMeL]RP-NHEt)", "Ki": 11}
{"smiles": "CC(C)C[C@H](NC(=O)[C@@H](Cc1ccc2ccccc2c1)NC(=O)[C@H](Cc1ccc(O)cc1)NC(=O)[C@H](CO)NC(=O)CCc1c[nH]c2ccccc12)C(=O)N[C@@H](CCCNC(=N)N)C(=O)N1CCC[C@H]1C(=O)NCC(N)=O", "note": "[Compound 47, N-(3-(3-Indole)propionyl)-Ser-Tyr-D-2-Nal-Leu-Arg-Pro-Gly-NH2] ({Propanoyl(3-indol-3-yl)}-SY[d2Nal]LRPG-NH2)", "Ki": 4.27}
{"smiles": "CCNC(=O)[C@@H]1CCCN1C(=O)[C@H](CCCNC(=N)N)NC(=O)[C@H](CC(C)C)NC(=O)[C@@H](CCCN)NC(=O)[C@H](Cc1ccc(O)cc1)NC(=O)[C@H](CO)NC(=O)CCc1c[nH]c2ccccc12", "note": "[Compound 49, (4-9) [N-(3-(3-indole)propionyl)-Ser^4 -D-Orn^6 -Pro^9 NHEt]LHRH] ({Propanoyl(3-indol-3-yl)}-SY[dOrn]LRP-NHEt)", "Ki": 55}
{"smiles": "CCNC(=O)[C@@H]1CCCN1C(=O)[C@H](CCCNC(=N)N)NC(=O)[C@H](CC(C)C)NC(=O)[C@@H](CCC(N)=O)NC(=O)[C@H](Cc1ccc(O)cc1)NC(=O)[C@H](CO)NC(=O)CCc1c[nH]c2ccccc12", "note": "[Compound 50, (4-9)[N-(3-(3-Indole)propionyl)-Ser^4 -D-Gln^6 -Pro^9 -NHEt]LHRH] ({Propanoyl(3-indol-3-yl)}-SY[dQ]LRP-NHEt)", "Ki": 166}
{"smiles": "CCNC(=O)CC[C@@H](NC(=O)[C@H](Cc1ccc(O)cc1)NC(=O)[C@H](CO)NC(=O)CCc1c[nH]c2ccccc12)C(=O)N[C@@H](CC(C)C)C(=O)N[C@@H](CCCNC(=N)N)C(=O)N1CCC[C@H]1C(=O)NCC", "note": "[Compound 51, N-(3-(3-Indole)propionyl)-Ser-Tyr-N-delta-ethyl-D-Gln-Leu-Arg-ProNHEt] ({Propanoyl(3-indol-3-yl)}-SY[dE](NHEt)LRP-NHEt)", "Ki": 132}
{"smiles": "CCNC(=O)[C@@H]1CCCN1C(=O)[C@H](CCCNC(=N)N)NC(=O)[C@H](CC(C)C)NC(=O)[C@@H](CCCCNC(=O)c1cccnc1)NC(=O)[C@H](Cc1ccc(O)cc1)NC(=O)[C@H](CO)NC(=O)CCc1c[nH]c2ccccc12", "note": "[Compound 52] ({Propanoyl(3-indol-3-yl)}-SY[dK](Nicotinoyl)LRP-NHEt)", "Ki": 21.9}
{"smiles": "CCNC(=O)[C@@H]1CCCN1C(=O)[C@H](CCCNC(=N)N)NC(=O)[C@H](CC(C)C)NC(=O)[C@@H](CCCCNC(=O)c1ccccn1)NC(=O)[C@H](Cc1ccc(O)cc1)NC(=O)[C@H](CO)NC(=O)CCc1c[nH]c2ccccc12", "note": "[Compound 53] ({Propanoyl(3-indol-3-yl)}-SY[dK](Picolinoyl)LRP-NHEt)", "Ki": 27.5}
{"smiles": "CCNC(=O)[C@@H]1CCCN1C(=O)[C@H](CCCNC(=N)N)NC(=O)[C@H](CC(C)C)NC(=O)[C@@H](CCCCNC(C)C)NC(=O)[C@H](Cc1ccc(O)cc1)NC(=O)[C@H](CO)NC(=O)CCc1c[nH]c2ccccc12", "note": "[Compound 54, N-(3-(3-Indole)propionyl)-Ser-Tyr-D-Lys-(N-epsilon-isp)-Leu-Arg-Pro-NHEt] ({Propanoyl(3-indol-3-yl)}-SY[dLys(iPr)]LRP-NHEt)", "Ki": 20.4}
{"smiles": "CCNC(=O)[C@@H]1CCCN1C(=O)[C@H](CCCNC(=N)N)NC(=O)[C@H](CC(C)C)NC(=O)[C@@H](CCCCN)NC(=O)[C@H](Cc1ccc(O)cc1)NC(=O)[C@H](CO)NC(=O)CCc1c[nH]c2ccccc12", "note": "[Compound 55, N-(3-(3-Indole)propionyl)-Ser-Tyr-D-Lys-Leu-Arg-Pro-NHEt] ({Propanoyl(3-indol-3-yl)}-SY[dK]LRP-NHEt)", "Ki": 15.1}
{"smiles": "CC(C)C[C@H](NC(=O)[C@@H](Cc1ccc2ccccc2c1)NC(=O)[C@H](Cc1ccc(O)cc1)NC(=O)[C@H](CO)NC(=O)CCc1c[nH]c2ccccc12)C(=O)N[C@@H](CCCNC(=N)N)C(=O)N1CCC[C@H]1C(=O)N[C@H](C)C(N)=O", "note": "[Compound 56, N-(3-(3-Indole)propionyl)-Ser-Tyr-D-2-Nal-Leu-Arg-Pro-D-AlaNH2] ({Propanoyl(3-indol-3-yl)}-SY[d2Nal]LRP[dA]-NH2)", "Ki": 0.646}
{"smiles": "CCNC(=O)[C@@H]1CCCN1C(=O)[C@H](CCCNC(=N)N)NC(=O)[C@H](CC(C)C)NC(=O)[C@@H](CC(C)C)N(C)C(=O)[C@H](Cc1ccc(O)cc1)NC(=O)[C@H](CO)NC(=O)CCc1c[nH]c2ccccc12", "note": "[Compound 58, N-(3-(3-Indole)propionyl)-Ser-Tyr-D-N-Me-Leu-Leu-Arg-Pro-NHEt] ({Propanoyl(3-indol-3-yl)}-SY[dNMeL]LRP-NHEt)", "Ki": 22.4}
{"smiles": "CCNC(=O)[C@@H]1CCCN1C(=O)[C@H](CCCNC(=N)N)NC(=O)[C@H](CC(C)C)NC(=O)[C@@H](Cc1c[nH]c2ccccc12)NC(=O)[C@H](Cc1ccc(O)cc1)NC(=O)[C@H](CO)NC(=O)[C@H](Cc1c[nH]c2ccccc12)NC(=O)[C@H](Cc1ccccc1)NC(=O)N1CCOCC1", "note": "[Compound 59, N-alpha-Morpholinocarbonyl-Phe-Trp-Ser-Tyr-D-Trp-Leu-Arg-ProNHET] ({Morpholide-CO}-FWSY[dW]LRP-NHEt)", "Ki": 0.00832}
{"smiles": "CCNC(=O)[C@@H]1CCCN1C(=O)[C@H](CCCNC(=N)N)NC(=O)[C@H](CC(C)C)NC(=O)[C@@H](CCCNC(=N)N)NC(=O)[C@H](Cc1ccc(O)cc1)NC(=O)[C@H](CO)NC(=O)[C@H](Cc1c[nH]c2ccccc12)NC(=O)[C@H](Cc1ccccc1)NC(=O)N1CCOCC1", "note": "[Compound 60, N-(alpha)-Morpholinocarbonyl-Phe-Trp-Ser-Tyr-D-Arg-Leu-Arg-ProNHEt] ({Morpholide-CO}-FWSY[dR]LRP-NHEt)", "Ki": 5.25}
{"smiles": "CCNC(=O)[C@@H]1CCCN1C(=O)[C@H](CCCNC(=N)N)NC(=O)[C@H](CC(C)C)NC(=O)[C@@H](Cc1c[nH]c2ccccc12)NC(=O)[C@H](Cc1ccc(O)cc1)NC(=O)[C@H](CO)NC(=O)[C@H](Cc1c[nH]c2ccccc12)NC(=O)CCc1c[nH]cn1", "note": "[Compound 61, N-[3-(4-Imidazolyl)propionyl]-Trp-Ser-Tyr-D-Trp-Leu-Arg-ProNHEt] (Desaminohistidyl-WSY[dW]LRP-NHEt)", "Ki": 0.427}
{"smiles": "CCNC(=O)[C@@H]1CCCN1C(=O)[C@H](CCCNC(=N)N)NC(=O)[C@H](CC(C)C)NC(=O)[C@@H](Cc1c[nH]c2ccccc12)NC(=O)[C@H](Cc1ccc(O)cc1)NC(=O)[C@H](CO)NC(=O)[C@H](Cc1c[nH]c2ccccc12)NC(=O)C=Cc1ccccc1", "note": "[Compound 62, (3-9)[N-Cinnamoyl-Trp^3 -D-Trp^6 -Pro^9 -NHEt]LHRH] (X2-WSY[dW]LRP-NHEt)", "Ki": 10.5}
{"smiles": "CCNC(=O)[C@@H]1CCCN1C(=O)[C@H](CCCNC(=N)N)NC(=O)[C@H](CC(C)C)NC(=O)[C@@H](CC(C)C)NC(=O)[C@H](Cc1ccc(O)cc1)NC(=O)[C@H](CO)NC(=O)[C@H](Cc1c[nH]c2ccccc12)NC(=O)C=Cc1ccccc1", "note": "[Compound 63, (3-9)[N-Cinnamoyl-Trp^3 -D-Leu^6 -Pro^9 -NHEt]LHRH] (X2-WSY[dL]LRP-NHEt)", "Ki": 50.1}
{"smiles": "CCNC(=O)[C@@H]1CCCN1C(=O)[C@H](CCCNC(=N)N)NC(=O)[C@H](CC(C)C)NC(=O)[C@@H](CC(C)C)NC(=O)[C@H](Cc1ccc(O)cc1)NC(=O)[C@H](CO)NC(=O)[C@H](Cc1c[nH]c2ccccc12)NC(=O)C=Cc1ccc(N(C)C)cc1", "note": "[Compound 64, (3-9)[N-((para-Dimethylamino)cinnamoyl)-Trp^3 -D-Leu^6 -Pro^9 -NHEt]LHRH] (X11-WSY[dL]LRP-NHEt)", "Ki": 437}
